Data taken from a melting point compilation (Tetko et al.; mined from patent text by program, amines drawn as free bases though some values may be those of a salt).

Compared with Cc1ccc(S(=O)(=O)O[C@H](C)COc2c(N)ccc(F)c2F)cc1, Cc1ccc(-c2cncn2-c2ccc(S(C)(=O)=O)cc2)cc1 is higher in melting point: 37 to 38 °C for the first, 156 °C for the second.

Compared with CC1(C)OC[C@H](COc2ccc(C(=O)c3ccc([N+](=O)[O-])cc3)cc2)O1, COc1ccc2c(c1)c(C(C)=NOC1CCCCO1)c(C)n2C(=O)c1ccc(Cl)cc1 (configuration not stated) is higher in melting point: 92 to 93 °C for the first, 115 to 119 °C for the second.

Compared with COc1ccccc1Oc1c(NS(=O)(=O)c2ccc3ccccc3c2)nc(N2CCOCC2)nc1OCCOc1ncc(Br)cn1, Cc1ccccc1-c1c(-c2ccc(S(C)(=O)=O)cc2)oc2ccccc2c1=O is higher in melting point: 178 to 182 °C for the first, 190 to 191 °C for the second.

First: N#Cc1nn(-c2ccccc2)c(OC(F)F)c1CO
Second: CCc1nc2nccc(-c3cccc(C(F)(F)F)c3)n2n1
The melting point of the first is lower: 71 to 72 °C for the first, 132 to 134 °C for the second.

Compared with CC(=O)C1CCC2C3CCC4=CC(=O)CCC4(C)C3C(Cl)CC12C (configuration not stated), C#CCC1(C2CCC3C(O[Si](C)(C)C(C)(C)C)CCCC32C)CC1 (configuration not stated) is lower in melting point: 185 to 188 °C for the first, 49 to 50 °C for the second.

First: Cc1nn(C)c(Cl)c1C(=O)Nc1cccc2c1CCC2(C)C
Second: Cc1nc2c(c3c1[nH]c1cccc(F)c13)C(=O)CC(C)(C)C2
The melting point of the first is lower: 175 °C for the first, 246 to 247 °C for the second.

First: Ic1ccc(SSc2ccc(I)cc2)cc1
Second: O=C(CBr)Nc1ccc(I)cc1
The melting point of the first is lower: 122 to 123 °C for the first, 185 °C for the second.

Compared with NC(=O)c1sc2nc(N3CCC(NCC(O)c4ccc5ncccc5c4)CC3)cc(C(F)(F)F)c2c1N (configuration not stated), CCOC(=O)C1=C(CS(=O)c2ccccc2)Nc2ccnc(OC(C)C)c2C1c1ccccc1C(F)(F)F (configuration not stated) is lower in melting point: 217 to 219 °C for the first, 206 to 208 °C for the second.

Compared with COc1ccc2c(c1)c(CC(=O)OCC(=O)OC(C)(C)C)c(C)n2C(=O)c1ccc(Cl)cc1, CCOC(=O)[C@H](Cc1ccc(-c2c(C(F)(F)F)cc(C)n(C)c2=O)cc1)NC(=O)c1c(Cl)cccc1Cl is lower in melting point: 96 to 97 °C for the first, 86 to 91 °C for the second.

First: CCN(CC)c1nc(Cl)nc2c(SC)ncnc12
Second: COc1cnc(Cl)n2nc(N)nc12
The melting point of the first is lower: 90 to 91 °C for the first, 251 °C for the second.

First: Cc1nc2c(s1)Cc1cc(Cl)ccc1-2
Second: CN(C)c1c(C(N)=O)sc2cccc(Cl)c12
The melting point of the first is lower: 94 °C for the first, 194 to 196 °C for the second.

Compared with COC(=O)Cn1c(C(=O)Nc2nc(-c3cc(OC)c(Cl)cc3OC)c(CC3CCCCC3)s2)cc2cc(C)cc(C)c21, CCn1ccc(C(=O)c2sc(NC(=O)c3ccncc3)nc2-c2ccco2)cc1=O is higher in melting point: 143 to 145 °C for the first, 277 to 281 °C for the second.

First: O=C1CCC(N2Cc3c(OCc4cccc(CN5CCC(c6ccc(Cl)cc6)CC5)c4)cccc3C2=O)C(=O)N1 (configuration not stated)
Second: O=C(Nc1ccc(Cl)cc1)C1=C(N2CCCC2)CS(=O)(=O)N(Cc2ccc(Cl)cc2)c2ccccc21
The melting point of the first is lower: 180 to 182 °C for the first, 190 to 194 °C for the second.

Compared with CCCCCCCCCCCCCCCCCCNc1nc(N)nc(N)n1, CCC(COC)n1nnc2c(Nc3ccc(C(C)=O)cc3Br)nc(C)nc21 (configuration not stated) is higher in melting point: 91 °C for the first, 133 to 134 °C for the second.

First: CC(C)c1ccc(S(=O)(=O)Nc2ccc(OC(F)(F)F)cc2I)cc1
Second: Cc1c(C)c2c(c(C)c1N)C(c1ccc(C(C)C)cc1)CO2 (configuration not stated)
The melting point of the first is lower: 72 °C for the first, 171 to 173 °C for the second.

Compared with COc1ccc(OC)c2c(Nc3ccc4cn[nH]c4c3)c(C#N)cnc12, COc1cccc(Nc2n[nH]c(N=CN(C)C)c2C#N)c1 is lower in melting point: 302 to 305 °C for the first, 227 to 231 °C for the second.

Compared with COc1ccc(C(=O)Nc2ccc(CN3C(=O)[C@H]4CCC[C@H]4N(C(=O)CN4C(=O)c5ccccc5C4=O)c4ccccc43)cc2)cc1 (relative stereo), Oc1ccc2c(c1-c1ccccc1)CCCC=C2c1ccc(OCCCCCSc2ccc(C(F)(F)F)cc2)cc1 is higher in melting point: 170 to 173 °C for the first, 189 °C for the second.

Compared with Nc1nc(Cn2c(-c3ccc(Oc4cncnc4)cc3)ccc2-c2ccccc2Cl)ccc1OCCO, COc1ccc(-c2cc(=O)n(Cc3cccnc3)nc2-c2ccc(OC)cc2)cc1 is higher in melting point: 78 to 81 °C for the first, 167 to 168 °C for the second.

First: CCn1c(C(O)(c2cccc(F)c2)c2cccc(F)c2)nc(-c2ccncc2)c1-c1ccc(Cl)cc1
Second: NCc1ccc(-n2c(-c3cccnc3N)nc3ccc(-c4ccccc4)nc32)cc1
The melting point of the first is higher: 225 to 227 °C for the first, 215 to 218 °C for the second.

First: CC(C)(C)NC(=O)[C@@H]1C[C@H](O)CN1C(=O)[C@@H](O)[C@H](Cc1ccccc1)NC(=O)[C@H](CC(N)=O)NC(=O)OCc1ccccc1
Second: COc1cc(C(=O)C(=O)c2ccccc2)c(OC)cc1C(=O)C(=O)c1ccccc1
The melting point of the first is lower: 113 to 115 °C for the first, 209 to 211 °C for the second.

Compared with Oc1cccc(-c2noc3ncccc23)c1, O=[N+]([O-])c1ccccc1/C=C/c1ncon1 is lower in melting point: 175 to 178 °C for the first, 128 °C for the second.

First: CCOC(=O)c1cc(C(=O)NC)nc(C(=O)NC)c1NC
Second: COC(=O)c1ncn(C2OC(COC(C)=O)C(OC(C)=O)C2OC(C)=O)n1 (configuration not stated)
The melting point of the first is higher: 169 to 170 °C for the first, 107 to 109 °C for the second.

Compared with Cc1nc(N2CCCN(Cc3ccc(F)cc3)C2=O)sc1C(=O)NCc1cccnc1, NCC(=O)NCc1ccc(F)cc1 is higher in melting point: 48 to 50 °C for the first, 114 to 115 °C for the second.

Compound CC(=O)N1N=C(c2ccc([N+](=O)[O-])c(C)c2)c2cc3c(cc2CC1C)OCO3 (configuration not stated) has a melting point of 123 to 127 °C.
